Source: US20150105252A1, “SUBSTITUTED PYRAZOLES AS HERBICIDES” (E I DU PONT DE NEMOURS AND COMPANY, priority 2013, published 2015)

How the values were obtained:
wheat [1] = experiment: Test A preemergence; assay type: in vivo, Triticum aestivum; details: preemergence, 125 g ai/ha; visual injury, 0 to 100 scale, approx. 10 days
Outline: (§1)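 Pre- and postemergence greenhouse test; loam+sand; cpd in non-phytotox. solvent/surfactant; post at 1–2 leaf, 2–10 cm; visual score ~10 d, 0 = none, 100 = complete control.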

morningglory [2] = experiment: Test A preemergence; assay type: in vivo, Ipomoea spp.; details: 0 to 100 scale
Outline: as §1

crabgrass, large [3] = experiment: Test A postemergence; assay type: in vivo, Digitaria sanguinalis
Outline: as §1

rice = experiment: Test C flooded paddy test; assay type: in vivo, Oryza sativa; details: Flood
Outline: (§2)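 In-water treatment: compound dosed into 3 cm flood over soil, water level unchanged throughout. Controls run alongside; visual assessment at day 13–15.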

velvetleaf [4] = experiment: Test A preemergence; assay type: in vivo, Abutilon theophrasti; details: 0 to 100 scale
Outline: as §1

corn [5] = experiment: Test A preemergence; assay type: in vivo, Zea mays; details: 0 to 100 scale
Outline: as §1

barnyardgrass [6] = experiment: Test A postemergence; assay type: in vivo, Echinochloa crus-galli; details: Postemergence
Outline: as §1

barnyardgrass [7] = experiment: Test C flooded paddy test; assay type: in vivo, Echinochloa crus-galli; details: Flood
Outline: as §2

pigweed [8] = experiment: Test A postemergence; assay type: in vivo, Amaranthus retroflexus
Outline: as §1

foxtail, giant [9] = experiment: Test A postemergence; assay type: in vivo, Setaria faberii
Outline: as §1

pigweed [10] = experiment: Test A preemergence; assay type: in vivo, Amaranthus retroflexus; details: 0 to 100 scale
Outline: as §1

ducksalad = experiment: Test C flooded paddy test; assay type: in vivo, Heteranthera limosa; details: Flood
Description: (§3) At time of treatment, test pots were flooded to 3 cm above the soil surface, treated by application of test compounds directly to the paddy water, and then maintained at that water depth for the duration of the test. Treated plants and controls were maintained in a greenhouse for 13 to 15 days, after which time all species were compared to controls and visually evaluated. […] A dash (-) response means no test result.

corn [11] = experiment: Test A postemergence; assay type: in vivo, Zea mays
Outline: as §1

barnyardgrass [12] = experiment: Test A preemergence; assay type: in vivo, Echinochloa crus-galli; details: 0 to 100 scale
Outline: as §1

foxtail, giant [13] = experiment: Test A preemergence; assay type: in vivo, Setaria faberii; details: 0 to 100 scale
Outline: as §1

crabgrass, large [14] = experiment: Test A preemergence; assay type: in vivo, Digitaria sanguinalis; details: 0 to 100 scale
Outline: as §1

wheat [15] = experiment: Test A postemergence; assay type: in vivo, Triticum aestivum
Outline: as §1

sedge, umbrella = experiment: Test C flooded paddy test; assay type: in vivo, Cyperus difformis; details: Flood
Description: as §3

morningglory [16] = experiment: Test A postemergence; assay type: in vivo, Ipomoea spp.
Outline: as §1

velvetleaf [17] = experiment: Test A postemergence; assay type: in vivo, Abutilon theophrasti
Outline: as §1

[18] = Preemergence, 500 g ai/ha, 0 no effect, 100 complete control
[19] = preemergence, 125 g ai/ha, visual injury, approx. 10 days
[20] = Postemergence, 500 g ai/ha, visual rating after approx. 10 days, 0 to 100 scale (0 no effect, 100 complete control)
[21] = postemergence, 125 g ai/ha, about 10 days, visual rating on 0 to 100 scale (0 no effect, 100 complete control)
[22] = 31 g ai/ha, scale 0 to 100 (0 no effect, 100 complete control)
[23] = 62 g ai/ha, scale 0 to 100 (0 no effect, 100 complete control)
[24] = 125 g ai/ha, 0 to 100 scale, 0 no effect, 100 complete control
[25] = 500 g ai/ha, visual rating after approx. 10 days, 0 to 100 scale (0 no effect, 100 complete control)

SMILES: CNC(=O)c1cc(C)n(Cc2cccc(OC(F)(F)F)c2)n1 [Compound 3]
- Wheat plant response rating (wheat [1]): 0
- Morningglory plant response rating (morningglory [2]; [18]): 0
- Morningglory plant response rating (morningglory [2]; [19]): 0
- Crabgrass, Large plant response rating (crabgrass, large [3]; [20]): 10
- Crabgrass, Large plant response rating (crabgrass, large [3]; [21]): 0
- Plant response rating, Rice (rice; [22]): 0
- Plant response rating, Rice (rice; [23]): 0
- Plant response rating, Rice (rice; 125 g ai/ha, scale 0 to 100): 0
- Plant response rating, Rice (rice; 250 g ai/ha, scale 0 to 100): 0
- Velvetleaf plant response rating (velvetleaf [4]; [18]): 0
- Velvetleaf plant response rating (velvetleaf [4]; [19]): 0
- Corn plant response rating (corn [5]; [18]): 0
- Corn plant response rating (corn [5]; [19]): 0
- Barnyardgrass plant response rating (barnyardgrass [6]; [24]): 0
- Barnyardgrass plant response rating (barnyardgrass [6]; [25]): 0
- Plant response rating, Barnyardgrass (barnyardgrass [7]; [22]): 0
- Plant response rating, Barnyardgrass (barnyardgrass [7]; [23]): 0
- Plant response rating, Barnyardgrass (barnyardgrass [7]; 125 g ai/ha, scale 0 to 100): 0
- Plant response rating, Barnyardgrass (barnyardgrass [7]; 250 g ai/ha, scale 0 to 100): 0
- Pigweed plant response rating (pigweed [8]; [20]): 70
- Pigweed plant response rating (pigweed [8]; [21]): 20
- Foxtail, Giant plant response rating (foxtail, giant [9]; [20]): 0
- Foxtail, Giant plant response rating (foxtail, giant [9]; [21]): 0
- Pigweed plant response rating (pigweed [10]; [18]): 100
- Pigweed plant response rating (pigweed [10]; [19]): 0
- Plant response rating, Ducksalad (ducksalad; [22]): 40
- Plant response rating, Ducksalad (ducksalad; [23]): 50
- Plant response rating, Ducksalad (ducksalad; 125 g ai/ha, scale 0 to 100): 50
- Plant response rating, Ducksalad (ducksalad; 250 g ai/ha, scale 0 to 100): 60
- Corn plant response rating (corn [11]; [20]): 10
- Corn plant response rating (corn [11]; [21]): 0
- Barnyardgrass plant response rating (barnyardgrass [12]; [18]): 0
- Barnyardgrass plant response rating (barnyardgrass [12]; [19]): 0
- Foxtail, Giant plant response rating (foxtail, giant [13]; [18]): 20
- Foxtail, Giant plant response rating (foxtail, giant [13]; [19]): 0
- Crabgrass, Large plant response rating (crabgrass, large [14]; [18]): 30
- Crabgrass, Large plant response rating (crabgrass, large [14]; [19]): 0
- Wheat plant response rating (wheat [15]; [20]): 0
- Wheat plant response rating (wheat [15]; [21]): 0
- Plant response rating, Sedge, Umbrella (sedge, umbrella; [22]): 0
- Plant response rating, Sedge, Umbrella (sedge, umbrella; [23]): 0
- Plant response rating, Sedge, Umbrella (sedge, umbrella; 125 g ai/ha, scale 0 to 100): 0
- Plant response rating, Sedge, Umbrella (sedge, umbrella; 250 g ai/ha, scale 0 to 100): 0
- Morningglory plant response rating (morningglory [16]; [20]): 20
- Morningglory plant response rating (morningglory [16]; [21]): 10
- Velvetleaf plant response rating (velvetleaf [17]; [20]): 20
- Velvetleaf plant response rating (velvetleaf [17]; [21]): 0

SMILES: CCNC(=O)c1cc(C)n(Cc2cccc(OC(F)(F)F)c2)n1 [Compound 4]
- Wheat plant response rating (wheat [1]): 0
- Morningglory plant response rating (morningglory [2]; [18]): 20
- Morningglory plant response rating (morningglory [2]; [19]): 0
- Crabgrass, Large plant response rating (crabgrass, large [3]; [20]): 50
- Crabgrass, Large plant response rating (crabgrass, large [3]; [21]): 20
- Plant response rating, Rice (rice; [22]): 0
- Plant response rating, Rice (rice; [23]): 0
- Plant response rating, Rice (rice; 125 g ai/ha, scale 0 to 100): 0
- Plant response rating, Rice (rice; 250 g ai/ha, scale 0 to 100): 0
- Velvetleaf plant response rating (velvetleaf [4]; [18]): 10
- Velvetleaf plant response rating (velvetleaf [4]; [19]): 0
- Corn plant response rating (corn [5]; [18]): 0
- Corn plant response rating (corn [5]; [19]): 0
- Barnyardgrass plant response rating (barnyardgrass [6]; [24]): 10
- Barnyardgrass plant response rating (barnyardgrass [6]; [25]): 40
- Plant response rating, Barnyardgrass (barnyardgrass [7]; [22]): 0
- Plant response rating, Barnyardgrass (barnyardgrass [7]; [23]): 0
- Plant response rating, Barnyardgrass (barnyardgrass [7]; 125 g ai/ha, scale 0 to 100): 0
- Plant response rating, Barnyardgrass (barnyardgrass [7]; 250 g ai/ha, scale 0 to 100): 0
- Pigweed plant response rating (pigweed [8]; [20]): 80
- Pigweed plant response rating (pigweed [8]; [21]): 70
- Foxtail, Giant plant response rating (foxtail, giant [9]; [20]): 30
- Foxtail, Giant plant response rating (foxtail, giant [9]; [21]): 10
- Pigweed plant response rating (pigweed [10]; [18]): 100
- Pigweed plant response rating (pigweed [10]; [19]): 50
- Plant response rating, Ducksalad (ducksalad; [22]): 0
- Plant response rating, Ducksalad (ducksalad; [23]): 40
- Plant response rating, Ducksalad (ducksalad; 125 g ai/ha, scale 0 to 100): 50
- Plant response rating, Ducksalad (ducksalad; 250 g ai/ha, scale 0 to 100): 60
- Corn plant response rating (corn [11]; [20]): 40
- Corn plant response rating (corn [11]; [21]): 10
- Barnyardgrass plant response rating (barnyardgrass [12]; [18]): 50
- Barnyardgrass plant response rating (barnyardgrass [12]; [19]): 0
- Foxtail, Giant plant response rating (foxtail, giant [13]; [18]): 60
- Foxtail, Giant plant response rating (foxtail, giant [13]; [19]): 0
- Crabgrass, Large plant response rating (crabgrass, large [14]; [18]): 90
- Crabgrass, Large plant response rating (crabgrass, large [14]; [19]): 40
- Wheat plant response rating (wheat [15]; [20]): 0
- Wheat plant response rating (wheat [15]; [21]): 0
- Plant response rating, Sedge, Umbrella (sedge, umbrella; [22]): 0
- Plant response rating, Sedge, Umbrella (sedge, umbrella; [23]): 0
- Plant response rating, Sedge, Umbrella (sedge, umbrella; 125 g ai/ha, scale 0 to 100): 0
- Plant response rating, Sedge, Umbrella (sedge, umbrella; 250 g ai/ha, scale 0 to 100): 60
- Morningglory plant response rating (morningglory [16]; [20]): 90
- Morningglory plant response rating (morningglory [16]; [21]): 30
- Velvetleaf plant response rating (velvetleaf [17]; [20]): 30
- Velvetleaf plant response rating (velvetleaf [17]; [21]): 10
